The values that follow come from US20240368173A1, “TRICYCLIC GPR65 MODULATORS” (PATHIOS THERAPEUTICS LIMITED, priority 2021, published 2024).

As a reminder, the IC50 is the concentration that gives 50% inhibition.

Each structure is given as a SMILES string.

Sequence of human recombinant GPR65 (Q8IYL9 whole entry): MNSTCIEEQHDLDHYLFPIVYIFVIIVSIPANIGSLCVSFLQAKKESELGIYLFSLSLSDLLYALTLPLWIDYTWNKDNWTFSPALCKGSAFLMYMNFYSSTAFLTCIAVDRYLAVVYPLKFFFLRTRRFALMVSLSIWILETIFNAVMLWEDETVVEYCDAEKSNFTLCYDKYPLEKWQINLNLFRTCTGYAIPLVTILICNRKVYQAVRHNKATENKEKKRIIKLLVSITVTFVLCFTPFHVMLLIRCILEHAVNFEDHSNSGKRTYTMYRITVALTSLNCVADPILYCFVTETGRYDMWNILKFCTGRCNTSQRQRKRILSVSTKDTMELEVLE

The assay deals with human recombinant GPR65 (Homo sapiens, UniProt Q8IYL9). Kind of assay: Human GPR65 cAMP HTRF antagonist assay. The format is cell-based. The method, boiled down:
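Antagonism measured as suppression of the cAMP rise when pH is dropped to 7.2 (control wells pH 7.9) in 1321N1 cells stably carrying human GPR65. Cells in KRH with 1 mM IBMX and 200 μM EDTA saw compound 30 min, then acid stimulation 30 min; HTRF cAMP detection, normalised, 4-parameter logistic IC50.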
A general note: In TR-FRET formats the signal depends on donor and acceptor labels being close together.
In the case of `O=C(Nc1cc(Cl)c(-c2cncc(F)c2)cn1)N1[C@H]2CC[C@@H]1c1n[nH]c(=O)cc1C2` [Compound 229, (6S,9R)-N-(4-Chloro-5′-fluoro-[3,3′-bipyridin]-6-yl)-3-oxo-3,5,6,7,8,9-hexahydro-2H-6,9-epiminocyclohepta[c]pyridazine-10-carboxamide], the IC50 is less than 0.5 µM.
For the compound `O=C(Nc1cc(Cl)c(-c2ccc(F)nc2)cn1)N1[C@H]2CC[C@@H]1c1n[nH]c(=O)cc1C2` [Compound 230, (6S,9R)-N-(4-Chloro-6′-fluoro-[3,3′-bipyridin]-6-yl)-3-oxo-3,5,6,7,8,9-hexahydro-2H-6,9-epiminocyclohepta[c]pyridazine-10-carboxamide], the IC50 was less than 0.5 µM.
With `O=C(Nc1ccccc1)c1cc(F)c(NC(=O)N2[C@H]3CC[C@@H]2c2n[nH]c(=O)cc2C3)cc1Cl` [Compound 231, (6S,9R)—N-(5-Chloro-2-fluoro-4-(phenylcarbamoyl)phenyl)-3-oxo-3,5,6,7,8,9-hexahydro-2H-6,9-epiminocyclohepta[c]pyridazine-10-carboxamide], the IC50 was in the range of 0.5 to 5 µM.
The value for `Cc1nc2cc(-c3cc(F)c(NC(=O)N4[C@H]5CC[C@@H]4c4c[nH]c(=O)cc4C5)cc3Cl)ccc2o1` [Compound 232, (6S,9R)-N-(5-Chloro-2-fluoro-4-(2-methylbenzo[d]oxazol-5-yl)phenyl)-3-oxo-3,5,6,7,8,9-hexahydro-2H-6,9-epiminocyclohepta[c]pyridine-10-carboxamide] was less than 0.5 µM; that for `Cc1nc2cc(-c3cc(F)c(NC(=O)N4[C@H]5CC[C@@H]4c4ccnc(F)c4C5)cc3Cl)ccc2o1` [Compound 233, (5R,8S)-N-(5-Chloro-2-fluoro-4-(2-methylbenzo[d]oxazol-5-yl)phenyl)-1-fluoro-6,7,8,9-tetrahydro-5H-5,8-epiminocyclohepta[c]pyridine-10-carboxamide] was less than 0.5 µM; that for `Cc1nc2cc(-c3cc(F)c(NC(=O)N4[C@H]5CC[C@@H]4c4n[nH]c(=O)cc4C5)cc3Cl)ccc2o1` [Compound 234, (6S,9R)-N-(5-Chloro-2-fluoro-4-(2-methylbenzo[d]oxazol-5-yl)phenyl)-3-oxo-3,5,6,7,8,9-hexahydro-2H-6,9-epiminocyclohepta[c]pyridazine-10-carboxamide] was less than 0.5 µM.
Turning to `O=C(Nc1cc(Cl)c(COc2ccccc2)cc1F)N1[C@H]2CC[C@@H]1c1n[nH]c(=O)cc1C2` [Compound 235, (6S,9R)-N-(5-Chloro-2-fluoro-4-(phenoxymethyl)phenyl)-3-oxo-3,5,6,7,8,9-hexahydro-2H-6,9-epiminocyclohepta[c]pyridazine-10-carboxamide], the IC50 is less than 0.5 µM.
In the case of `O=C(Nc1cc(F)c(NC(=O)N2[C@H]3CC[C@@H]2c2n[nH]c(=O)cc2C3)cc1Cl)c1ccccc1` [Compound 236, (6S,9R)—N-(4-benzamido-5-chloro-2-fluorophenyl)-3-oxo-3,5,6,7,8,9-hexahydro-2H-6,9-epiminocyclohepta[c]pyridazine-10-carboxamide] it was 0.5 to 5 µM; in that of `O=C(Nc1cc(Cl)c(OCc2ccccc2)cc1F)N1[C@H]2CC[C@@H]1c1n[nH]c(=O)cc1C2` [Compound 237, (6S,9R)-N-(4-(Benzyloxy)-5-chloro-2-fluorophenyl)-3-oxo-3,5,6,7,8,9-hexahydro-2H-6,9-epiminocyclohepta[c]pyridazine-10-carboxamide], less than 0.5 µM.
The value for `O=C(Nc1cc(Cl)c(-c2ccc3nonc3c2)cn1)N1[C@H]2CC[C@@H]1c1n[nH]c(=O)cc1C2` [Compound 238, (6S,9R)-N-(5-(Benzo[c][1,2,5]oxadiazol-5-yl)-4-chloropyridin-2-yl)-3-oxo-3,5,6,7,8,9-hexahydro-2H-6,9-epiminocyclohepta[c]pyridazine-10-carboxamide] was less than 0.5 µM.
In the case of `O=C(Nc1cc(Cl)c(-c2ccc(OC3CCC3)nc2)cc1F)N1[C@H]2CC[C@@H]1c1c[nH]c(=O)cc1C2` [Compound 239, (6S,9R)-N-(5-Chloro-4-(6-cyclobutoxypyridin-3-yl)-2-fluorophenyl)-3-oxo-3,5,6,7,8,9-hexahydro-2H-6,9-epiminocyclohepta[c]pyridine-10-carboxamide], the half-inhibitory concentration (IC50) is less than 0.5 µM.
The value for `O=C(Nc1cc(Cl)c(-c2ccc(OCC(F)(F)F)nc2)cc1F)N1[C@H]2CC[C@@H]1c1ccnc(F)c1C2` [Compound 240, (5R,8S)-N-(5-Chloro-2-fluoro-4-(6-(2,2,2-trifluoroethoxy)pyridin-3-yl)phenyl)-1-fluoro-6,7,8,9-tetrahydro-5H-5,8-epiminocyclohepta[c]pyridine-10-carboxamide] was less than 0.5 µM; that for `O=C(Nc1cc(Cl)c(-c2ccc(OCC(F)(F)F)nc2)cc1F)N1[C@H]2CC[C@@H]1c1c[nH]c(=O)cc1C2` [Compound 241, (6S,9R)-N-(5-Chloro-2-fluoro-4-(6-(2,2,2-trifluoroethoxy)pyridin-3-yl)phenyl)-3-oxo-3,5,6,7,8,9-hexahydro-2H-6,9-epiminocyclohepta[c]pyridine-10-carboxamide] was less than 0.5 µM; that for `O=C(Nc1cc(F)c(-c2ccc(F)nc2)cc1F)N1[C@H]2CC[C@@H]1c1ccnc(F)c1C2` [Compound 242, (5R,8S)-N-(2,5-Difluoro-4-(6-fluoropyridin-3-yl)phenyl)-1-fluoro-6,7,8,9-tetrahydro-5H-5,8-epiminocyclohepta[c]pyridine-10-carboxamide] was less than 0.5 µM.
Regarding `O=C(Nc1cc(F)c(-c2ccc(F)nc2)cc1F)N1[C@H]2CC[C@@H]1c1c[nH]c(=O)cc1C2` [Compound 243, (6S,9R)-N-(2,5-Difluoro-4-(6-fluoropyridin-3-yl)phenyl)-3-oxo-3,5,6,7,8,9-hexahydro-2H-6,9-epiminocyclohepta[c]pyridine-10-carboxamide], the IC50 was less than 0.5 µM.
Consider `O=C(Nc1cc(F)c(-c2ccc(F)nc2)cc1F)N1[C@H]2CC[C@@H]1c1n[nH]c(=O)cc1C2` [Compound 244, (6S,9R)-N-(2,5-Difluoro-4-(6-fluoropyridin-3-yl)phenyl)-3-oxo-3,5,6,7,8,9-hexahydro-2H-6,9-epiminocyclohepta[c]pyridazine-10-carboxamide], for which the IC50 was less than 0.5 µM.
With `COc1ccc(-c2cc(F)c(NC(=O)N3[C@H]4CC[C@@H]3c3ccnc(F)c3C4)cc2F)cn1` [Compound 245, (5R,8S)-N-(2,5-Difluoro-4-(6-methoxypyridin-3-yl)phenyl)-1-fluoro-6,7,8,9-tetrahydro-5H-5,8-epiminocyclohepta[c]pyridine-10-carboxamide], the IC50 is less than 0.5 µM.
With `COc1ccc(-c2cc(F)c(NC(=O)N3[C@H]4CC[C@@H]3c3c[nH]c(=O)cc3C4)cc2F)cn1` [Compound 246, (6S,9R)-N-(2,5-Difluoro-4-(6-methoxypyridin-3-yl)phenyl)-3-oxo-3,5,6,7,8,9-hexahydro-2H-6,9-epiminocyclohepta[c]pyridine-10-carboxamide], the IC50 was less than 0.5 µM.
In the case of `COc1ccc(-c2cc(F)c(NC(=O)N3[C@H]4CC[C@@H]3c3n[nH]c(=O)cc3C4)cc2F)cn1` [Compound 247, (6S,9R)-N-(2,5-Difluoro-4-(6-methoxypyridin-3-yl)phenyl)-3-oxo-3,5,6,7,8,9-hexahydro-2H-6,9-epiminocyclohepta[c]pyridazine-10-carboxamide], the IC50 is less than 0.5 µM.
`COc1cncc(-c2cc(F)c(NC(=O)N3[C@H]4CC[C@@H]3c3ccnc(F)c3C4)cc2Cl)c1` [Compound 248, (5R,8S)-N-(5-Chloro-2-fluoro-4-(5-methoxypyridin-3-yl)phenyl)-1-fluoro-6,7,8,9-tetrahydro-5H-5,8-epiminocyclohepta[c]pyridine-10-carboxamide]: the IC50 was less than 0.5 µM.
With `COc1cncc(-c2cc(F)c(NC(=O)N3[C@H]4CC[C@@H]3c3c[nH]c(=O)cc3C4)cc2Cl)c1` [Compound 249, (6S,9R)-N-(5-Chloro-2-fluoro-4-(5-methoxypyridin-3-yl)phenyl)-3-oxo-3,5,6,7,8,9-hexahydro-2H-6,9-epiminocyclohepta[c]pyridine-10-carboxamide], the IC50 was less than 0.5 µM.
In the case of `O=C(Nc1cc(Cl)c(-c2ccccc2)cc1F)N1[C@H]2CC[C@@H]1c1ccnc(F)c1C2` [Compound 250, (5R,8S)-N-(2-Chloro-5-fluoro-[1,1′-biphenyl]-4-yl)-1-fluoro-6,7,8,9-tetrahydro-5H-5,8-epiminocyclohepta[c]pyridine-10-carboxamide] it was less than 0.5 µM; in that of `O=C(Nc1cc(Cl)c(-c2ccccc2)cc1F)N1[C@H]2CC[C@@H]1c1c[nH]c(=O)cc1C2` [Compound 251, (6S,9R)-N-(2-Chloro-5-fluoro-[1,1′-biphenyl]-4-yl)-3-oxo-3,5,6,7,8,9-hexahydro-2H-6,9-epiminocyclohepta[c]pyridine-10-carboxamide], less than 0.5 µM; in that of `O=C(Nc1cc(Cl)c(-c2cc(F)cnc2F)cc1F)N1[C@H]2CC[C@@H]1c1c[nH]c(=O)cc1C2` [Compound 252, (6S,9R)-N-(5-Chloro-4-(2,5-difluoropyridin-3-yl)-2-fluorophenyl)-3-oxo-3,5,6,7,8,9-hexahydro-2H-6,9-epiminocyclohepta[c]pyridine-10-carboxamide], less than 0.5 µM.
As for `O=C(Nc1cc(-c2ccc3nonc3c2)c(C(F)(F)F)cc1F)N1[C@H]2CC[C@@H]1c1ccnc(F)c1C2` [Compound 253, (5R,8S)-N-(5-(benzo[c][1,2,5]oxadiazol-5-yl)-2-fluoro-4-(trifluoromethyl)phenyl)-1-fluoro-6,7,8,9-tetrahydro-5H-5,8-epiminocyclohepta[c]pyridine-10-carboxamide], the IC50 was less than 0.5 µM.
With `O=C(Nc1cc(-c2ccc3nonc3c2)c(C(F)(F)F)cc1F)N1[C@H]2CC[C@@H]1c1n[nH]c(=O)cc1C2` [Compound 254, (6S,9R)-N-(5-(Benzo[c][1,2,5]oxadiazol-5-yl)-2-fluoro-4-(trifluoromethyl)phenyl)-3-oxo-3,5,6,7,8,9-hexahydro-2H-6,9-epiminocyclohepta[c]pyridazine-10-carboxamide], the IC50 is less than 0.5 µM.
